From ChEMBL document CHEMBL1933040, “The novel agent ophiobolin O induces apoptosis and cell cycle arrest of MCF-7 cells through activation of MAPK signaling pathways” (Bioorg Med Chem Lett, 2012)
Activity calls are given as the source filed them. The rule behind the calls is not given here.

Experiments:
MCF7 [1] = experiment: Induction of apoptosis in human MCF7 cells assessed as change in Bax expression level at 17.86 uM after 12 to 48 hrs by Western blot analysis; type: functional, cell-based
MCF7 [2] = experiment: Induction of apoptosis in human MCF7 cells assessed as change in Bax/Bcl2 ratio at 17.86 uM by Western blot analysis; type: functional, cell-based; settings: TDE = time-dependent effect
MCF7 [3] = experiment: Induction of apoptosis in human MCF7 cells at 17.86 uM after 48 hrs by using Annexin V-FITC and propidium iodide staining by flow cytometry in presence of JNK inhibitor SP600125; type: functional, cell-based
[4] = molecular target: T1, Mitogen-activated protein kinase; ERK1/ERK2 (Homo sapiens) (UniProt P27361+P28482); experiment: Activation of ERK1/2 phosphorylation in human MCF7 cells at 17.86 uM after 48 hrs by Western blot analysis in presence of ERK inhibitor U0126; type: cell-based
[5] = molecular target: T2, MAP kinase p38 (Homo sapiens) (UniProt O15264+Q15759+Q16539+P53778); experiment: Activation of MAPK p38 phosphorylation in human MCF7 cells at 17.86 uM after 48 hrs by Western blot analysis in presence of p38 inhibitor SB203580; type: cell-based
MCF7 [6] = experiment: Induction of apoptosis in human MCF7 cells assessed as increase of Bcl-2 phosphorylation at Ser70 at 17.86 uM after 12 hrs by Western blot analysis in presence of JNK inhibitor SP600125; type: functional, cell-based
MCF7 [7] = experiment: Induction of apoptosis in human MCF7 cells assessed as change in Bcl-2 protein level at 17.86 uM after 12 hrs by Western blot analysis in presence of JNK inhibitor SP600125; type: functional, cell-based
MCF7 [8] = experiment: Effect on total ERK 1/2 protein level in human MCF7 cells at 17.86 uM after 12 to 48 hrs by Western blot analysis; type: functional, cell-based
MCF7 [9] = experiment: Effect on total MAPK p38 protein level in human MCF7 cells at 17.86 uM after 12 to 48 hrs by Western blot analysis; type: functional, cell-based
MCF7 [10] = experiment: Effect on total JNK protein level in human MCF7 cells at 17.86 uM after 12 to 48 hrs by Western blot analysis; type: functional, cell-based
MCF7 [11] = experiment: Cytotoxicity against human MCF7 cells after 48 hrs by MTT assay; type: functional, cell-based
HUVEC = experiment: Cytotoxicity against human HUVEC cells after 48 hrs by MTT assay; type: cell-based
MCF7 [12] = experiment: Cell cycle arrest in human MCF7 cells assessed as accumulation at G0/G1 phase at 17.86 uM after 12 hrs by flow cytometry (reference value: 39.34 +/- 3.37%); type: functional
MCF7 [13] = experiment: Cell cycle arrest in human MCF7 cells assessed as accumulation at G0/G1 phase at 17.86 uM after 24 hrs by flow cytometry (reference value: 39.34 +/- 3.37%); type: functional
MCF7 [14] = experiment: Cell cycle arrest in human MCF7 cells assessed as accumulation at G0/G1 phase at 17.86 uM after 48 hrs by flow cytometry (reference value: 39.34 +/- 3.37%); type: functional
MCF7 [15] = experiment: Cell cycle arrest in human MCF7 cells assessed as accumulation at G0/G1 phase at 17.86 uM by flow cytometry; type: functional, cell-based; settings: TDE = time-dependent effect
MCF7 [16] = experiment: Induction of apoptosis in human MCF7 cells at 17.86 uM using Annexin V-FITC and propidium iodide staining by flow cytometry; type: functional, cell-based; settings: TDE = time-dependent effect
MCF7 [17] = experiment: Induction of apoptosis in human MCF7 cells at 17.86 uM after 48 hrs using Annexin V-FITC and propidium iodide staining by flow cytometry (reference value: 3.71 +/- 0.63%); type: functional
[18] = molecular target: T1, Mitogen-activated protein kinase; ERK1/ERK2 (Homo sapiens); experiment: Activation of ERK1/2 phosphorylation in human MCF7 cells at 17.86 uM after 24 hrs by Western blot analysis relative to control; type: cell-based
[19] = Activation of JNK phosphorylation in human MCF7 cells at 17.86 uM after 24 hrs by Western blot analysis; type: cell-based
[20] = molecular target: T2, MAP kinase p38 (Homo sapiens); experiment: Activation of MAPK p38 phosphorylation in human MCF7 cells at 17.86 uM after 12 hrs by Western blot analysis; type: cell-based
[21] = molecular target: T2, MAP kinase p38 (Homo sapiens); experiment: Activation of MAPK p38 phosphorylation in human MCF7 cells at 17.86 uM after 36 to 48 hrs by Western blot analysis; type: cell-based
MCF7 [22] = experiment: Induction of apoptosis in human MCF7 cells assessed as decrease in Bcl2 expression level at 17.86 uM after 12 to 48 hrs by Western blot analysis; type: functional, cell-based
MCF7 [23] = experiment: Induction of apoptosis in human MCF7 cells assessed as increase in Bim expression level at 17.86 uM after 12 to 48 hrs by Western blot analysis; type: functional, cell-based

T1 sequence (P27361 whole entry, looked up): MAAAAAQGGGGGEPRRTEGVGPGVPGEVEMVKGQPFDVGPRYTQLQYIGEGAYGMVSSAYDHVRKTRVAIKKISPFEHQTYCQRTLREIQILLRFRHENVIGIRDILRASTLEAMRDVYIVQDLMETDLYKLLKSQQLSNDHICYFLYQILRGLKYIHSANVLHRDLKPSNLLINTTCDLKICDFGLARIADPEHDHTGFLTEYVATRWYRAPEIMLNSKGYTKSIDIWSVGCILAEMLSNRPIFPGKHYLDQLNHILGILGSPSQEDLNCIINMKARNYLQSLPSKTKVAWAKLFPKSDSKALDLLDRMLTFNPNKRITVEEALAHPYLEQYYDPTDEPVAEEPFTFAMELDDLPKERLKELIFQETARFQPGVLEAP
T1 sequence (P28482 whole entry, looked up): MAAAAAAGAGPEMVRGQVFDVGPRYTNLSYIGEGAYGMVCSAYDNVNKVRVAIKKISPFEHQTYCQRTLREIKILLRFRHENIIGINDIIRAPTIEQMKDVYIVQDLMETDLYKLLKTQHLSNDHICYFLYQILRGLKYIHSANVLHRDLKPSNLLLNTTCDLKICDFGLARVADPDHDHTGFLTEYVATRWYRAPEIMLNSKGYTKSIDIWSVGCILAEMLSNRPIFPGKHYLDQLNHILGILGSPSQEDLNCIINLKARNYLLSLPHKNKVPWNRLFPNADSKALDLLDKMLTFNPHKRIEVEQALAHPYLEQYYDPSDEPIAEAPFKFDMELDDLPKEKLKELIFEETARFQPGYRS

In the case of `CO[C@H]1O[C@@]2(OC)C[C@@](C)(O)[C@H]3C[C@@]4(C)CC[C@H]([C@@H](C)/C=C\C=C(C)C)[C@@H]4C/C=C/1[C@H]32` [OPHIOBOLIN O], the Activity (MCF7 [1]) is reported as “inactive”, the Activity (MCF7 [2]) is reported as “tde” and the Activity (MCF7 [3]) is reported as “inactive”. For the same compound, the Activity [4] was “inactive”, the Activity [5] was “inactive” and the Activity (MCF7 [6]) was “Active”. The Activity (MCF7 [7]) was “Active”, the Activity (MCF7 [8]) was “Active” and the Activity (MCF7 [9]) was “Active”. The Activity (MCF7 [10]) was “Active”, the Activity (MCF7 [11]) was “Dose-dependent effect” and the IC50 (MCF7 [11]; MCF7, 48 h) was 17.9 µM. The Activity (HUVEC) was “Non-toxic”, the Activity (MCF7 [12]) was 44.79% and the Activity (MCF7 [13]) was 60.1%. For the same compound, the Activity (MCF7 [14]) was 78.54%, the Activity (MCF7 [15]) was “tde” and the Activity (MCF7 [16]) was “tde”. For the same compound, the Activity (MCF7 [17]) was 47.18%, the Activity [18] was “Active” and the Activity [19] was “Active”. The Activity [20] was “Active”, the Activity [21] was “Active” and the Activity (MCF7 [22]) was “Active”. The Activity (MCF7 [23]) was “Active”.
